According to patent publication US6043367A, “Proactive antitumor compounds” (priority 1998, dated 2000):

Key:
E. coli β-glucuronidase = E. coli β-glucuronidase (Escherichia coli, UniProt P05804); assay: cleavage of compound 22 by β-glucuronidase in βG buffer, HPLC; assay type: biochemical; details: E. coli β-glucuronidase 1 μg/ml, 37° C.
Protocol: The proactive compound can also be tested as to its ability to be cleaved by β-glucuronidase. Specifically, the enzyme and the tested compound are both added to […]. Aliquots are then taken out and evaluated in a similar fashion as described above.
(§1) 20 μl samples made from compounds 22 and 17 (moiety (3) of compound 22) were injected onto a Hypersil column (RP-18, 4.6×250 mm, 5 μm) with 45% methanol and 25 mM phosphate buffer (pH 2.5) as mobile phase at a flow rate of 1 ml/min. Eluted components were detected by fluorescence (excitation: 397 nm, emission: 482 nm) on a Gilson fluorometer. Peak areas were analyzed with Beckman system Gold software. The retention times for compound 17 and compound 22 were 9.5 and 15.8 minutes, respectively.
500 μl of compound 22 (116 μM) in βG buffer (100 mM acetic acid, 50 mM bis-tris, 50 mM triethanolamine, pH 7.0) was incubated with E. coli β-glucuronidase (1 μg/ml) at 37° C. Aliquots (30 μl) withdrawn after 0, 1, 2, 3, and 5 minutes was mixed with 300 μl of ethyl acetate, and acidified by addition of 12 mM phosphoric acid (270 μl). […] The recovery of compounds 22 and 17 from βG buffer […] were about 90% and 80%, respectively. Samples were suspended in 150 μl of mobile phase (45% methanol/25 mM phosphate buffer, pH 2.5) and analyzed by HPLC.

[1] = tested on: CaSki human cervical carcinoma cells; assay: in vitro cytotoxicity: [3H] leucine incorporation (protein synthesis) in CaSki cells
Protocol: One way to evaluate the in vitro cytotoxic activities of a proactive compound is by incubating the tested compound with cancerous cells in serum at 37° C. for a certain period of time. After incubation, the cells can be washed and pulsed with [^3 H] leucine in leucine-free medium for another period of time. The radioactivity of trichloroacetic acid-precipitated protein, an indication of the level of protein synthesis of the cell, can then be measured.
CaSki human cervical carcinoma cells were plated overnight in 96-well microtiter plates at 18,000 cells/well. Serial dilution of (i) compound 17 alone, (ii) compound 22 with β-glucuronidase, and (iii) compound 22 alone, in medium containing 5% fetal calf serum were added to cells for 96 hours at 37° C. Cells were subsequently washed once with sterile PBS, and then pulsed for 2 hours with [^3 H] leucine (1 μCi/well) in leucine-free medium. The radioactivity of trichloroacetic acid-precipitated protein was measured in a Beckman LS 6000 series liquid scintillation counter.

[2] = stability of the proactive compound in 95% human plasma at 37° C., HPLC; assay type: in vitro ADME; details: 145 μM (100 μg/ml), CO2 atmosphere, up to 48 hours, as compared with compound 23
Protocol: The stability of the proactive compound in serum can be evaluated by using high performance liquid chromatography (HPLC) analysis. […] Aliquots are taken out from the serum solution after every pre-designed period of time, e.g., every other hour. The proteins present in serum are precipitated, acidified, and dried under reduced pressure. The dried compound is dissolved in the HPLC buffer and then analyzed by HPLC.
as §1

Sequence of E. coli β-glucuronidase (P05804 whole entry): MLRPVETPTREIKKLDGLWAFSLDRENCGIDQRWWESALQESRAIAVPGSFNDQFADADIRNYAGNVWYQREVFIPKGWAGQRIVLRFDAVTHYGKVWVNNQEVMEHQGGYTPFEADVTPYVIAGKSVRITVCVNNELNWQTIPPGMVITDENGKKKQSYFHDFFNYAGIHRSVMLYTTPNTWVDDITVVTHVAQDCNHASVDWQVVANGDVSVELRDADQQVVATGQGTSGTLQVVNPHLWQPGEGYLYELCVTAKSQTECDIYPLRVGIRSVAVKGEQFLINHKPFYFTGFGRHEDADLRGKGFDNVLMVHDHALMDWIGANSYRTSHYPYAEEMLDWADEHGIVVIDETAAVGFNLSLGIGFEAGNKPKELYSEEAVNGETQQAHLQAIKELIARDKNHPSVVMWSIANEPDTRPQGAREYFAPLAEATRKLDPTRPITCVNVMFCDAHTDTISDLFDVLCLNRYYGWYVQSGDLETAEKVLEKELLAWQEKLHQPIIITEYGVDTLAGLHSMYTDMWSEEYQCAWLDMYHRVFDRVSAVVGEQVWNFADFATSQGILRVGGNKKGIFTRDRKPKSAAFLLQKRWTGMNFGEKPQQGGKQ

| SMILES | absorbance of compound 17 released from compound 22 by β-glucuronidase (E. coli β-glucuronidase; 0-5 minutes, compound 22 116 μM, βG buffer pH 7.0) | decrease of level of protein synthesis ([1]; compound alone, 100 nM, 96 hours, 37° C., 5% fetal calf serum) [fold] | conversion into moiety (3) upon activation by glucuronidase (E. coli β-glucuronidase) | absorbance of compound 22 after incubation with β-glucuronidase (E. coli β-glucuronidase; after 3 minutes, compound 22 116 μM, βG buffer pH 7.0) | half life in serum [2] | cytotoxicity relative to compound 17 ([1]; compound alone (no β-glucuronidase)) | change of level of protein synthesis ([1]; compound alone (no β-glucuronidase), 100 nM, 96 hours, 37° C., 5% fetal calf serum) | cytotoxicity relative to compound 17 ([1]; upon activation by glucuronidase) | decrease of level of protein synthesis ([1]; with β-glucuronidase, 100 nM, 96 hours, 37° C., 5% fetal calf serum) [fold] |
| --- | --- | --- | --- | --- | --- | --- | --- | --- | --- |
| CC[C@@]1(O)C(=O)OCc2c1cc1n(c2=O)Cc2cc3c(N)cccc3nc2-1 [Compound 17, reference compound] | increased in the first three minutes and reached a steady level after the third minute | ~4 |  |  |  |  |  |  |  |
| CC[C@@]1(O)C(=O)OCc2c1cc1n(c2=O)Cc2cc3c(NC(=O)OCc4ccc(O[C@@H]5O[C@H](C(=O)O)[C@@H](O)[C@H](O)[C@H]5O)cc4)cccc3nc2-1 [Compound 22] |  |  | converted into its moiety (3), i.e., compound 17 | almost undetectable | surprisingly long half life in serum | much less cytotoxic than compound 17 | did not change | almost as cytotoxic as compound 17 | ~4 |
